Active and inactive are the calls of the source.
Columns and labels:
[1] = molecular target: T1, Cytochrome P450 1A2 (Homo sapiens, UniProt P05177);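 note: PubChem cytochrome P450 panel assay, CYP1A2 panel member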
T1 sequence (P05177 whole entry): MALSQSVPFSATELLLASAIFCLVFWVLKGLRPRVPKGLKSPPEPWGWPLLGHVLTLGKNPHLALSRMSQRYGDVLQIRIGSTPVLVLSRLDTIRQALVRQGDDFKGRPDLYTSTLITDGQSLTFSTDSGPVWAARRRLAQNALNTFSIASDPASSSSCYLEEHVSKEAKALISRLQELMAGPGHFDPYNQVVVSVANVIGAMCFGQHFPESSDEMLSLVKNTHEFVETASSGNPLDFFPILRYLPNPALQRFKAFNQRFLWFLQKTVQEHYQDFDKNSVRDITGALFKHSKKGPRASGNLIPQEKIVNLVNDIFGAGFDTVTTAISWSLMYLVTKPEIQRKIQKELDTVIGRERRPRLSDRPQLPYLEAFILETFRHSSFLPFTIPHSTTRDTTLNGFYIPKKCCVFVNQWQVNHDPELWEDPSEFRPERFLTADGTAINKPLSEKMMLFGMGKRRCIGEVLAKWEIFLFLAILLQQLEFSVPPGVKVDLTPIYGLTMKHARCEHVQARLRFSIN

[2] = molecular target: T2, Apoptotic protease-activating factor 1 (Homo sapiens, UniProt O14727); assay type: functional
T2 sequence (O14727 whole entry): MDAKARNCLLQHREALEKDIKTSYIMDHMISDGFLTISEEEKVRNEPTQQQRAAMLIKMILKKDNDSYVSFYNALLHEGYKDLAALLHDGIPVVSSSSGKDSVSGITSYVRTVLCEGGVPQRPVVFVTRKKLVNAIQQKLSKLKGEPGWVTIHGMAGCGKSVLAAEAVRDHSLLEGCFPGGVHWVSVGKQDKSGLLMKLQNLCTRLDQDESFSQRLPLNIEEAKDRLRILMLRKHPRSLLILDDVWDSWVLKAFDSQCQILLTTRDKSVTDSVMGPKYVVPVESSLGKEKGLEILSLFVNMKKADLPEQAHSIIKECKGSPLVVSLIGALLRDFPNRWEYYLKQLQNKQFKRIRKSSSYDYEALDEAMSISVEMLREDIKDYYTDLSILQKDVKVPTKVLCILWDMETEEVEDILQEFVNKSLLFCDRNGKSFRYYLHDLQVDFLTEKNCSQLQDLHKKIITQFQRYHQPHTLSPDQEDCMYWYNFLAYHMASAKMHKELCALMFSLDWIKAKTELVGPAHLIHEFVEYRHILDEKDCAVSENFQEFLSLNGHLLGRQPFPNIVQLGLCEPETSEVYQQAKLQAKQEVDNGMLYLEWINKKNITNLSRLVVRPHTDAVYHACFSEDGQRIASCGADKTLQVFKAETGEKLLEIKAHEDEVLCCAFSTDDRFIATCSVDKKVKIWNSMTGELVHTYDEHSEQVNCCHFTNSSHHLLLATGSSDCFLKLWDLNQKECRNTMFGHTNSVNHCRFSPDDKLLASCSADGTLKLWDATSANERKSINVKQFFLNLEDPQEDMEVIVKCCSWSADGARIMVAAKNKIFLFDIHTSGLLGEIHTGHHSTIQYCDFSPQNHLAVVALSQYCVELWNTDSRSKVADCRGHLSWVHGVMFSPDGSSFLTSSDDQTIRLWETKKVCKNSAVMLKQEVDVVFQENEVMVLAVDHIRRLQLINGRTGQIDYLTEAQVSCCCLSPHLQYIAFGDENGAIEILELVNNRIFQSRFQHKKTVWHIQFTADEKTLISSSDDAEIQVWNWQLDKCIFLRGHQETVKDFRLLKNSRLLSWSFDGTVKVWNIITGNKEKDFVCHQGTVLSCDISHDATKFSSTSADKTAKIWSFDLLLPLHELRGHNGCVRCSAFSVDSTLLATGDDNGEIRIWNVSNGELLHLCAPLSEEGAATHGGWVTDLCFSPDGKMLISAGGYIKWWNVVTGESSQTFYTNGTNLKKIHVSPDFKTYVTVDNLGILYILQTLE

[3] = molecular target: Cytochrome P450 3A4 (Homo sapiens, UniProt P08684);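 note: CYP3A4 tested as one member of a cytochrome P450 panel screen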
[4] = molecular target: Estrogen receptor beta (Homo sapiens, UniProt Q92731);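 note: recombinant ER-beta bound to coactivator SRC1 peptide in presence of estradiol agonist; inhibitors block coactivator peptide binding and lower the FRET signal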
[5] = HEK-293T cell viability reduction – luminescence, B-cell screen hits, cytotoxicity control for BCR NF-kB inhibitor project, dose response (AID 489021); assay type: functional, cell-based;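 note: HEK-293T cells carrying an NF-kB luciferase reporter; cells exposed to compound for about 14 hours before viability readout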
[6] = test system: H4; assay: Luminescence Cell-Based Dose Response HTS to Identify Activators of 5'UTR Stem-Loop Driven Prion Protein mRNA Translation in H4 Neuroglioblastoma Cells. [Related pubchem assays: 1829 (Project Summary), 1814 (Primary HTS)]; assay type: functional; settings: Homo sapiens
[7] = Luminescence Cell-Based Dose Response HTS to Identify Activators of Luciferase Translation or Activity in H4 […] Cells. [Related pubchem assays: 1829 (Project Summary), 1814 (Primary HTS)]; assay type: functional
[8] = molecular target: Induced myeloid leukemia cell differentiation protein Mcl-1 (Homo sapiens, UniProt Q07820); assay type: functional
[9] = Luminescence Cell-Based Dose Confirmation HTS to Identify Activators of 5'UTR Stem-Loop Driven Alpha-Synuclein mRNA Translation in H4 Neuroglioblastoma Cells. [Related pubchem assays: 1829 (Project Summary), 1814 (Primary HTS)]; assay type: functional
[10] = NIH3T3 cell viability loss – ATP luminescence, mouse fibroblasts, counter-screen, dose response (AID 2010); assay type: functional, cell-based;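 note: cells exposed to compound for about 90 hours before reading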
[11] = Trypanosoma cruzi growth suppression in host cells – NIH3T3 host cells, beta-gal luminescence, confirmation (AID 2044); assay type: functional, cell-based;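 note: intracellular parasites grown in NIH/3T3 mouse fibroblasts as host cells; luminescent beta-galactosidase reporter signal from transgenic T. cruzi replicating inside host cells; inhibitors lower the luminescence signal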
[12] = test system: Streptococcus; assay: GAS UMAA2166 growth inhibition – luminescence, BacTiterGlo, counter-screen for streptokinase expression inhibitor project, dose response (AID 1915); assay type: functional, organism-based;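 note: potency for reduction of bacterial viability or growth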
[13] = test system: Streptococcus sp. 'group A'; assay: Streptococcus pyogenes SK(-)GAS viability under kanamycin – luminescence, BacTiterGlo, confirmation, counter-screen for streptokinase expression inhibitor project, dose response (AID 1900); assay type: functional, organism-based
[14] = molecular target: T3, Streptokinase A (Streptococcus pyogenes serotype M1, UniProt P10520); assay: viability-normalized secreted streptokinase activity reduction – plasminogen activation absorbance, OD405, dose response (AID 1914); assay type: functional, Streptococcus pyogenes M1 GAS;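 note: secreted streptokinase activity via plasminogen activation per viability signal from cell pellet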
T3 sequence (P10520 whole entry): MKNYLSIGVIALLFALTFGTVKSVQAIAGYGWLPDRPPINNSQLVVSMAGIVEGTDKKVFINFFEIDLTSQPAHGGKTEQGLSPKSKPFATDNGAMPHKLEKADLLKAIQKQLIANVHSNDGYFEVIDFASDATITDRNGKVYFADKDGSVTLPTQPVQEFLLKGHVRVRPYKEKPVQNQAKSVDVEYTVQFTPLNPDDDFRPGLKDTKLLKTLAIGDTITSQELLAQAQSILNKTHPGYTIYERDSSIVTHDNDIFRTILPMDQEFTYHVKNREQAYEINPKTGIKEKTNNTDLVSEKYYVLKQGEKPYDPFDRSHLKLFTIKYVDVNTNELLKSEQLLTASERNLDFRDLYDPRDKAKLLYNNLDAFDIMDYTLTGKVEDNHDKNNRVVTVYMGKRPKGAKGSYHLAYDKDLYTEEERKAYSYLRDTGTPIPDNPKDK

[15] = molecular target: T4, Histone-lysine N-methyltransferase NSD2 (Homo sapiens, UniProt O96028); assay type: biochemical
T4 sequence (O96028 whole entry): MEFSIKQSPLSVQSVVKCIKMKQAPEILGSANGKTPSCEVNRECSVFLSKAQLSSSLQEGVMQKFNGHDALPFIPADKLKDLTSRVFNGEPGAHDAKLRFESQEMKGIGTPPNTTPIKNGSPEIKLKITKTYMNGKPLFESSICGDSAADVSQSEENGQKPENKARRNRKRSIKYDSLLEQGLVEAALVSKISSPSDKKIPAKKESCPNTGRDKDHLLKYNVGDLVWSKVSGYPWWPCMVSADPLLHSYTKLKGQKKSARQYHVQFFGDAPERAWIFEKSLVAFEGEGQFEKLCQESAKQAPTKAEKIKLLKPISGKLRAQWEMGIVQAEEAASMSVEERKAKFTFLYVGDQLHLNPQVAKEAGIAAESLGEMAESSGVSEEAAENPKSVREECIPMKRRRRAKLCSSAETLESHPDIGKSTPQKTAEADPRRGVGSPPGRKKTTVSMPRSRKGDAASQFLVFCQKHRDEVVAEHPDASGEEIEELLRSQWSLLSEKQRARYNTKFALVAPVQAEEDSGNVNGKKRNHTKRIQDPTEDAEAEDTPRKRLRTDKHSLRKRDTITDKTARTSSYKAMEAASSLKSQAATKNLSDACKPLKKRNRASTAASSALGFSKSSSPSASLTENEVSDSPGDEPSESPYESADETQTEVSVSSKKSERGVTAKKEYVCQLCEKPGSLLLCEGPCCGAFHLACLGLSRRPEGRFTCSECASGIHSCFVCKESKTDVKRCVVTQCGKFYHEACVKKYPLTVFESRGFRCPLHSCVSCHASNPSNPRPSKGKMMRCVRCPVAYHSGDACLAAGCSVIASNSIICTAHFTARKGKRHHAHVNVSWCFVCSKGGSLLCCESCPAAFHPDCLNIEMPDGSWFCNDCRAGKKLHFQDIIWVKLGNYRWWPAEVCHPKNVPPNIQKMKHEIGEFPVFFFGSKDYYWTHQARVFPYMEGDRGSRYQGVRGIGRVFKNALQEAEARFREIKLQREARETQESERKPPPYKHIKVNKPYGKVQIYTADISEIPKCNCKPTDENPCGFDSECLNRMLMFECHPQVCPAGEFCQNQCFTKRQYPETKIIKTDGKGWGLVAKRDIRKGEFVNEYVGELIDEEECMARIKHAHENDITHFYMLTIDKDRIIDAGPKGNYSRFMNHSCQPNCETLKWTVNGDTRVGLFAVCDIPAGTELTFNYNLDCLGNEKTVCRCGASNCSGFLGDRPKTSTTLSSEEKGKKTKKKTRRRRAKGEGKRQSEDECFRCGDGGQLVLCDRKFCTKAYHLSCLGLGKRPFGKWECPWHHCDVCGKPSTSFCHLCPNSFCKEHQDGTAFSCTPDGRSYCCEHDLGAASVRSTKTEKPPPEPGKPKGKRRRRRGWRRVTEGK

[16] = molecular target: FAD-linked sulfhydryl oxidase ALR (Homo sapiens, UniProt P55789); assay: ALR-catalysed DTT oxidation blockers – biochemical, H2O2 detection, luminescence, cherry-pick, dose response (AID 493248)
FAD-linked sulfhydryl oxidase ALR, sequence (P55789 whole entry): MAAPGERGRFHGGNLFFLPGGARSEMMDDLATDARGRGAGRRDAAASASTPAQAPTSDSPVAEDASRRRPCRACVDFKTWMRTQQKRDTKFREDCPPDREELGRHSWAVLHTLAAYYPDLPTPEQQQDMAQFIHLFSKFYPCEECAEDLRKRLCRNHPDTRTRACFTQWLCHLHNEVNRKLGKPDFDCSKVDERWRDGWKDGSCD

Induced myeloid leukemia cell differentiation protein Mcl-1, sequence (Q07820 whole entry): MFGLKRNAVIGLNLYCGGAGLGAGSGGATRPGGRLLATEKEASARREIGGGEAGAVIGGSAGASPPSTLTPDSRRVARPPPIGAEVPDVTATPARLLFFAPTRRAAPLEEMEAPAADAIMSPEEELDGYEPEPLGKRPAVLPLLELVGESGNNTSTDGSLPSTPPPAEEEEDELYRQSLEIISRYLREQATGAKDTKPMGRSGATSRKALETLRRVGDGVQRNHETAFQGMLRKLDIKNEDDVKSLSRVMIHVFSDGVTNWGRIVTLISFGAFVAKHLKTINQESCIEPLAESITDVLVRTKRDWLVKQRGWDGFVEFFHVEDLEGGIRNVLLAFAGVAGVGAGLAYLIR
Estrogen receptor beta, sequence (Q92731 whole entry): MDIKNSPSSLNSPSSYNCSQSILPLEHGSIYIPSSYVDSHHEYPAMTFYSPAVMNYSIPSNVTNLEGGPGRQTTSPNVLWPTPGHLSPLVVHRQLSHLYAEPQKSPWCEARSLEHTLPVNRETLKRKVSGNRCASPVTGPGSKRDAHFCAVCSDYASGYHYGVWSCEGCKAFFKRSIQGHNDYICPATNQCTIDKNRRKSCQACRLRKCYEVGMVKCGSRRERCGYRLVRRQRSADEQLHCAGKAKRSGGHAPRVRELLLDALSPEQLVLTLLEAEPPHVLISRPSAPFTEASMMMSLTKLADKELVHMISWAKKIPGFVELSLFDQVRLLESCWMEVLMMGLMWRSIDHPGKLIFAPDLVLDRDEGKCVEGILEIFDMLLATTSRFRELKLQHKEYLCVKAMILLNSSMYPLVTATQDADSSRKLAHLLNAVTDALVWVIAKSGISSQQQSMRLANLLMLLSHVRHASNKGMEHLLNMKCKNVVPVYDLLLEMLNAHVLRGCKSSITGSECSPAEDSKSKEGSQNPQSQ
Cytochrome P450 3A4, sequence (P08684 whole entry): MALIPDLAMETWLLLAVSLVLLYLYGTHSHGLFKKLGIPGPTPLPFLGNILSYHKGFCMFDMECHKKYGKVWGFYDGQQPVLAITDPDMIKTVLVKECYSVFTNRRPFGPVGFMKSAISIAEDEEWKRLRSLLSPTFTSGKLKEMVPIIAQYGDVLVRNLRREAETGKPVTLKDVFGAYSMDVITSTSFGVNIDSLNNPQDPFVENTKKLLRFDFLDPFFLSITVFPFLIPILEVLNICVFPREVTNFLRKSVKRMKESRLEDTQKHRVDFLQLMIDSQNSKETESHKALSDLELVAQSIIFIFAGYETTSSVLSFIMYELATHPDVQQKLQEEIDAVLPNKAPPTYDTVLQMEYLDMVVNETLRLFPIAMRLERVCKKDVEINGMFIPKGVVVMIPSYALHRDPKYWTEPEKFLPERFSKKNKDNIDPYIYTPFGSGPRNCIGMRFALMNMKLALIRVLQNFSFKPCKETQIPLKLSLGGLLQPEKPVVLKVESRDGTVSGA

COC(=O)c1ccccc1-c1ccc(/C=C2\C(=O)N(c3ccccc3)N=C2c2ccccc2)o1
AC50 [1]: 5.01 µM (inconclusive)
IC50 [2]: 28.9 µM (active)
AC50 [3]: 2.82 µM (inconclusive)

CC(=O)Nc1ccc(N2CCN(C(C)=O)CC2)cc1
IC50 [4]: > 50 µM (not active)

CCN(CC(=O)Nc1c(F)cccc1F)C(=O)c1cc(S(=O)(=O)N2CCOCC2)ccc1N1CCCC1
IC50 [5]: > 80 µM (inactive)

Cc1ccc2nc(-c3ccc(NC(=O)CN4CCN(c5ccccn5)CC4)cc3)sc2c1
EC50 [6]: 44.3 µM (active)
EC50 [7]: 9.19 µM (active)

Brc1ccc(C2Nc3cccc4cccc(c34)N2)s1
IC50 [8]: 9.46 µM (active)

Nc1nc(CSc2ncccn2)nc(Nc2ccccc2)n1
EC50 [9]: 3.07 µM (active)
EC50 [7]: 0.504 µM (active)

COC(=O)c1ccc(CC(=O)c2c(C)cc(O)cc2O)o1
IC50 [4]: 15 µM (active)

COc1ccc(/C=C/c2ccccc2)cc1[C@H]1[C@H]2C=CC[C@@H](C)[C@@H]2C(=O)N1Cc1ccccc1
IC50 [5]: > 80 µM (inactive)

CCCCCc1ccc(OCCC[n+]2ccccc2)c(CCCCC)c1
EC50 [10]: > 60 µM (not active)
EC50 [11]: 0.122 µM (active)
IC50 [2]: 84.9 µM (active)

CC(=O)Oc1ccc2occ(-c3ccccc3)c2c1
EC50 [6]: 14 µM (active)
EC50 [9]: 13.8 µM (active)
EC50 [7]: 16.7 µM (active)

O=C(COc1ccccc1Cl)c1ccc2c(c1)CCCC2
EC50 [6]: 10 µM (active)
EC50 [7]: 16.7 µM (active)

CCOC(=O)C(=O)N(Nc1ccc(C)cc1)c1ccc(C)cc1
EC50 [9]: 7.04 µM (active)
EC50 [7]: 82.6 µM (active)

CC1CCN(c2ccc(-c3ccc(NC(=O)c4ccco4)cc3)nn2)CC1
EC50 [12]: > 150 µM (not active)
EC50 [13]: > 150 µM (not active)
EC50 [6]: 120 µM (active)
EC50 [9]: 18.6 µM (active)
EC50 [7]: > 120 µM (not active)
EC50 [14]: > 150 µM (not active)

COc1ccc(S(=O)(=O)N2CCN(CC(=O)c3ccc(O)c(O)c3)CC2)cc1
AC50 [15]: 5.33 µM (active)
AC50 [16]: 2.33 µM (active)

COc1ccc(C2=NCc3nnc(C)n3-c3ccc(Cl)cc32)cc1Cl
IC50 [5]: > 80 µM (inactive)

COc1ccc(C(=O)N/N=C/c2sc(N3CCOCC3)nc2-c2ccccc2)cc1OC
IC50 [5]: 63.1 µM (inactive)

COc1cc(/C=N/NC(=O)c2cc(-c3ccco3)nc3ccccc23)cc(OC)c1O
IC50 [8]: 8.35 µM (active)
AC50 [16]: 0.13 µM (active)

CCCc1cc(=O)oc2c3c(c4c(c12)OC(C)(C)C=C4)O[C@H](C)[C@@H](C)[C@@H]3O [CALANOLIDE A]
EC50 [10]: 4.87 µM (active)
EC50 [11]: 2.28 µM (active)
IC50 [2]: 20.3 µM (active)
